Experimental data as given in patent publication US6355799B1, “Substituted benzene compounds, process for their preparation, and herbicidal and defoliant compositions containing them” (ISK Americas Incorporated, priority 1997, dated 2002).

Columns and labels:
Assay type in all cases: in vivo
[1] = test system: redroot pigweed (Amaranthus retroflexus, AMARE); assay: Pre-emerge test, greenhouse herbicide activity screening; conditions: pre-emerge, rated 14 days after application, 0 = no damage, 100 = complete death
In short: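 Plants grown in 10 cm pots of sandy loam mix received acetone-dissolved compounds through a moving flat-fan nozzle. Doses ranged from 15 to 1000 g ai/ha. Pre-emerge pots were seeded one day earlier, post-emerge pots 8–21 days earlier. Fourteen days on, each pot was graded 0–100 for damage.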

[2] = test system: barnyardgrass (Echinochloa crus-galli, ECHCG); assay: as above; conditions: pre-emerge, rated 14 days after application, 0 = no damage, 100 = complete death
In short: (§1)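 Compounds in acetone were track-sprayed at 15–1000 g ai/ha: pre-emergence onto soil sown the previous day, then top-watered to incorporate and later bottom-watered; post-emergence onto 2–3 leaf plants with 0.25% v/v surfactant, bottom-watered only. Ratings on a 0–100 phytotoxicity scale were taken at day 14.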

[3] = test system: green foxtail (Setaria viridis, SETVI); assay: as above; conditions: pre-emerge, rated 14 days after application, 0 = no damage, 100 = complete death
In short: as §1

[4] = test system: ivyleaf morningglory (Ipomoea hederacea, IPOHE); assay: as above; conditions: pre-emerge, rated 14 days after application, 0 = no damage, 100 = complete death
In short: as §1

[5] = test system: johnsongrass (Sorghum halepense, SORHA); assay: as above; conditions: pre-emerge, rated 14 days after application, 0 = no damage, 100 = complete death
In short: as §1

[6] = test system: lambsquarters (Chenopodium album, CHEAL); assay: as above; conditions: pre-emerge, rated 14 days after application, 0 = no damage, 100 = complete death
In short: as §1

[7] = test system: large crabgrass (Digitaria sanguinalis, DIGSA); assay: as above; conditions: pre-emerge, rated 14 days after application, 0 = no damage, 100 = complete death
In short: as §1

[8] = test system: sicklepod (Cassia obtusifolia, CASOB); assay: as above; conditions: pre-emerge, rated 14 days after application, 0 = no damage, 100 = complete death
In short: as §1

[9] = test system: velvetleaf (Abutilon theophrasti, ABUTH); assay: as above; conditions: pre-emerge, rated 14 days after application, 0 = no damage, 100 = complete death
In short: as §1

[10] = test system: field corn (Zea mays L., var. Dekalb 535, CORN); assay: Pre-emerge test, crop safety; conditions: pre-emerge, rated 14 days after application, 0 = no damage, 100 = complete death
In short: (§2)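 Sandy loam pots; pre-emerge: sown 1 d pre-spray, surface-watered after, then bottom-watered. Post-emerge: sown 8–21 d before, 2–3 leaf stage, + 0.25% v/v NIS, bottom-watered. Acetone, 187 l/ha track spray, 15–1000 g ai/ha. 0–100 injury score, day 14.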

[11] = test system: upland rice (Oryza sp., var. Tebonnet, RICE); assay: Pre-emerge test, crop safety; conditions: pre-emerge, rated 14 days after application, 0 = no damage, 100 = complete death
In short: as §2

[12] = test system: barnyardgrass (Echinochloa crus-galli, ECHCG); assay: Post-emerge test, greenhouse herbicide activity screening; conditions: phytotoxicity rating 0-100 (0 no damage, 100 complete death), 14 days after application
In short: as §1

[13] = test system: common ragweed (Ambrosia artemisizfolia L., AMBEL); assay: as above; conditions: phytotoxicity rating 0-100 (0 no damage, 100 complete death), 14 days after application
In short: as §1

[14] = test system: green foxtail (Setaria viridis, SETVI); assay: as above; conditions: phytotoxicity rating 0-100 (0 no damage, 100 complete death), 14 days after application
In short: as §1

[15] = test system: ivyleaf morningglory (Ipomoea hederacea, IPOHE); assay: as above; conditions: phytotoxicity rating 0-100 (0 no damage, 100 complete death), 14 days after application
In short: as §1

[16] = test system: johnsongrass (Sorghum halepense, SORHA); assay: as above; conditions: phytotoxicity rating 0-100 (0 no damage, 100 complete death), 14 days after application
In short: as §1

[17] = test system: lambsquarters (Chenopodium album, CHEAL); assay: as above; conditions: phytotoxicity rating 0-100 (0 no damage, 100 complete death), 14 days after application
In short: as §1

[18] = test system: large crabgrass (Digitaria sanguinalis, DIGSA); assay: as above; conditions: phytotoxicity rating 0-100 (0 no damage, 100 complete death), 14 days after application
In short: as §1

[19] = test system: redroot pigweed (Amaranthus retroflexus, AMARE); assay: as above; conditions: phytotoxicity rating 0-100 (0 no damage, 100 complete death), 14 days after application
In short: as §1

[20] = test system: sicklepod (Cassia obtusifolia, CASOB); assay: as above; conditions: phytotoxicity rating 0-100 (0 no damage, 100 complete death), 14 days after application
In short: as §1

[21] = test system: velvetleaf (Abutilon theophrasti, ABUTH); assay: as above; conditions: phytotoxicity rating 0-100 (0 no damage, 100 complete death), 14 days after application
In short: as §1

[22] = test system: field corn (Zea mays L., var. Dekalb 535, CORN); assay: Post-emerge test, crop safety; conditions: phytotoxicity rating 0-100 (0 no damage, 100 complete death), 14 days after application
In short: (§3)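 Rating: 0–100 visual injury, 14 DAA. Application: acetone, 187 l/ha, 15–1000 g ai/ha, flat-fan track sprayer with nozzle 40–45 cm above soil or canopy. Post-emerge runs used 0.25% v/v surfactant on 2–3 leaf plants.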

[23] = test system: upland rice (Oryza sp., var. Tebonnet, RICE); assay: Post-emerge test, crop safety; conditions: phytotoxicity rating 0-100 (0 no damage, 100 complete death), 14 days after application
In short: as §3

For `CCn1c(C(F)(F)F)cc(=O)n(-c2c(F)cc(Cl)c(OC)c2N)c1=O` [Compound 1-15], the “Pre-emerge Herbicidal Activity AMARE (phytotoxicity rating, scale 0-100)” value ([1]; 63 g ai/ha) was 0, the “Pre-emerge Herbicidal Activity AMARE (phytotoxicity rating, scale 0-100)” value ([1]; 250 g ai/ha) was 20 and the “Pre-emerge Herbicidal Activity ECHCG (phytotoxicity rating, scale 0-100)” value ([2]; 63 g ai/ha) was 0. The “Pre-emerge Herbicidal Activity ECHCG (phytotoxicity rating, scale 0-100)” value ([2]; 250 g ai/ha) was 0, the “Pre-emerge Herbicidal Activity SETVI (phytotoxicity rating, scale 0-100)” value ([3]; 63 g ai/ha) was 70 and the “Pre-emerge Herbicidal Activity SETVI (phytotoxicity rating, scale 0-100)” value ([3]; 250 g ai/ha) was 80. The “Pre-emerge Herbicidal Activity IPOHE (phytotoxicity rating, scale 0-100)” value ([4]; 63 g ai/ha) was 0, the “Pre-emerge Herbicidal Activity IPOHE (phytotoxicity rating, scale 0-100)” value ([4]; 250 g ai/ha) was 0 and the “Pre-emerge Herbicidal Activity SORHA (phytotoxicity rating, scale 0-100)” value ([5]; 63 g ai/ha) was 0. For the same compound, the “Pre-emerge Herbicidal Activity SORHA (phytotoxicity rating, scale 0-100)” value ([5]; 250 g ai/ha) was 20, the “Pre-emerge Herbicidal Activity CHEAL (phytotoxicity rating, scale 0-100)” value ([6]; 63 g ai/ha) was 40 and the “Pre-emerge Herbicidal Activity CHEAL (phytotoxicity rating, scale 0-100)” value ([6]; 250 g ai/ha) was 50. The “Pre-emerge Herbicidal Activity DIGSA (phytotoxicity rating, scale 0-100)” value ([7]; 63 g ai/ha) was 0, the “Pre-emerge Herbicidal Activity DIGSA (phytotoxicity rating, scale 0-100)” value ([7]; 250 g ai/ha) was 90 and the “Pre-emerge Herbicidal Activity CASOB (phytotoxicity rating, scale 0-100)” value ([8]; 63 g ai/ha) was 0. For the same compound, the “Pre-emerge Herbicidal Activity CASOB (phytotoxicity rating, scale 0-100)” value ([8]; 250 g ai/ha) was 0, the “Pre-emerge Herbicidal Activity ABUTH (phytotoxicity rating, scale 0-100)” value ([9]; 63 g ai/ha) was 20 and the “Pre-emerge Herbicidal Activity ABUTH (phytotoxicity rating, scale 0-100)” value ([9]; 250 g ai/ha) was 90. The “Pre-emerge crop damage CORN (phytotoxicity rating, scale 0-100)” value ([10]; 63 g ai/ha) was 0, the “Pre-emerge crop damage CORN (phytotoxicity rating, scale 0-100)” value ([10]; 250 g ai/ha) was 0 and the “Pre-emerge crop damage RICE (phytotoxicity rating, scale 0-100)” value ([11]; 63 g ai/ha) was 10. For the same compound, the “Pre-emerge crop damage RICE (phytotoxicity rating, scale 0-100)” value ([11]; 250 g ai/ha) was 30, the “Post-emerge Herbicidal Activity ECHCG” value ([12]; 63 g ai/ha) was 0 and the “Post-emerge Herbicidal Activity ECHCG” value ([12]; 250 g ai/ha) was 0. The “Post-emerge Herbicidal Activity AMBEL” value ([13]; 63 g ai/ha) was 0, the “Post-emerge Herbicidal Activity AMBEL” value ([13]; 250 g ai/ha) was 0 and the “Post-emerge Herbicidal Activity SETVI” value ([14]; 63 g ai/ha) was 0. The “Post-emerge Herbicidal Activity SETVI” value ([14]; 250 g ai/ha) was 0, the “Post-emerge Herbicidal Activity IPOHE” value ([15]; 63 g ai/ha) was 0 and the “Post-emerge Herbicidal Activity IPOHE” value ([15]; 250 g ai/ha) was 40. The “Post-emerge Herbicidal Activity SORHA” value ([16]; 63 g ai/ha) was 0, the “Post-emerge Herbicidal Activity SORHA” value ([16]; 250 g ai/ha) was 0 and the “Post-emerge Herbicidal Activity CHEAL” value ([17]; 63 g ai/ha) was 0. The “Post-emerge Herbicidal Activity CHEAL” value ([17]; 250 g ai/ha) was 20, the “Post-emerge Herbicidal Activity DIGSA” value ([18]; 63 g ai/ha) was 0 and the “Post-emerge Herbicidal Activity DIGSA” value ([18]; 250 g ai/ha) was 0. For the same compound, the “Post-emerge Herbicidal Activity AMARE” value ([19]; 63 g ai/ha) was 0, the “Post-emerge Herbicidal Activity AMARE” value ([19]; 250 g ai/ha) was 30 and the “Post-emerge Herbicidal Activity CASOB” value ([20]; 63 g ai/ha) was 0. For the same compound, the “Post-emerge Herbicidal Activity CASOB” value ([20]; 250 g ai/ha) was 0, the “Post-emerge Herbicidal Activity ABUTH” value ([21]; 63 g ai/ha) was 30 and the “Post-emerge Herbicidal Activity ABUTH” value ([21]; 250 g ai/ha) was 50. The “Post-emerge Herbicidal Activity CORN (crop damage)” value ([22]; 63 g ai/ha) was 0, the “Post-emerge Herbicidal Activity CORN (crop damage)” value ([22]; 250 g ai/ha) was 0 and the “Post-emerge Herbicidal Activity RICE (crop damage)” value ([23]; 63 g ai/ha) was 0. The “Post-emerge Herbicidal Activity RICE (crop damage)” value ([23]; 250 g ai/ha) was 0.
